In patent US20100331545A1, “REGULATOR FOR SIGNALING TOLL-LIKE RECEPTOR, WHICH COMPRISES CATHEPSIN INHIBITOR AS ACTIVE INGREDIENT” (NIPPON CHEMIPHAR CO., LTD., priority 2007, published 2010):

Legend:
[1] = system: T cells stimulated with anti-CD3/CD28 antibodies; test: IL-2 production of T cells stimulated with anti-CD3/CD28 antibodies (ELISA); type: cell-based, mouse
Description: (§1) Cells were cultured for 3-24 hours with or without PAMPs or plate-bound anti-CD3/CD28 antibodies in the presence or absence of NC-2300, and concentration of cytokines in the culture supernatant was determined by ELISA kits, according to the manufacturer's instructions.

[2] = system: T cells stimulated with anti-CD3/CD28 antibodies; test: Cell proliferation assay of T cells stimulated with anti-CD3/CD28 antibodies; type: cell-based, mouse
Description: Cell proliferation was evaluated by using a Cell Proliferation ELISA kit according to the manufacturer's protocol.

cathepsin K = target: T1, cathepsin K (Mus musculus, UniProt P55097); test: Enzymatic activity of cathepsin K in BM-DCs (substrate Z-Gly-Pro-Arg-MCA); type: cell-based; conditions: BM-DCs pre-treated 24 hours, cell lysates
T1 construct: cell lysates were subjected to enzymatic assay; endogenous in cells; host or cells: bone marrow-derived dendritic cells (BM-DCs): cells pre-treated with NC-2300, then lysed
T1 sequence (P55097 115-329): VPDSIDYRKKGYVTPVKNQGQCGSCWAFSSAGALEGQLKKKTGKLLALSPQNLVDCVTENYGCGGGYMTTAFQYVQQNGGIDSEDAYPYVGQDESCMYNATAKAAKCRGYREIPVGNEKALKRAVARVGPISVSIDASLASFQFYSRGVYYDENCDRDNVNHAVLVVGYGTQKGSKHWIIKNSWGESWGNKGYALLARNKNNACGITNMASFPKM
Description: BM-DCs were pre-treated with or without the cathepsin K inhibitor NC-2300 for 24 hours and washed extensively with cold phosphate-buffered saline (PBS), and cell lysates were subjected to enzymatic assay. Cathepsin K activity was measured with cathepsin K specific substrate, Z-Gly-Pro-Arg-MCA (GPR).

[3] = system: extracellular-signal regulated kinases 1/2 (ERK 1/2); test: ERK 1/2 phosphorylation in stimulated DCs (immunoblot); type: cell-based, mouse; conditions: CpG-induced
Description: DCs were cultured in low serum medium (0.1% FBS) for 4 hours to reduce background and then stimulated with CpG ODN or LPS in the presence or absence of NC-2300. The stimulated cells were subjected to immunoblot analyses as described in K. Sato et al., Nat Med12, 1410 (2006), using Abs for ERK-1/2, phosphorylated ERK-1/2 and β-actin.

Th17 cells = test: Th17 cell induction by splenic DCs cocultured with CD4+ T cells (intracellular staining of IL-17); type: cell-based, mouse; conditions: 3 days coculture
Description: (§2) Before staining, cells were incubated with mouse BD Fc Block to minimize nonspecific staining. The cells were then stained with fluorophore-conjugated monoclonal Abs. The following fluorophore-conjugated mAbs were used; Allophycocyanin (APC)-conjugated anti-CD3e (145-2C11), fluorescein isothiocyanate (FITC)-conjugated anti-CD4 (RM4-5), CD11c (HL3), CD40 (3/23), CD80 (16-10Al), CD86 (GL1), I-A^d (AMS-32.1), and Phycoerythrin (PE)-conjugated anti-mouse IL-17 (TC11-18H10). For intracellular cytokine staining, cells were collected and left unstimulated or were stimulated for 5 hours with PMA (40 ng ml^−1) and ion-omycin (4 μg ml^−1) in the presence of GolgiPlug at the recommended concentration. Standard intracellular cytokine staining was performed as follows; cells were first stained extracellularly with APC-conjugated anti-CD3 and FITC-conjugated anti-CD4 mAbs, then were fixed and permeabilized with Cytofix/Cytoperm solution, and finally were stained intracellularly with PE-conjugated anti-IL-17 mAb. Flowcytometric analysis was performed by FACScan with CellQuest software or FACSCanto II with Diva software.
CD4-positive T cells and splenic DCs were isolated from the spleen using a magnetic sorter and anti-CD4 microbeads. These cells were stimulated with plate-bound anti-CD3 and anti-CD28 mAbs (1 μg ml^−1 each) for 3 days in the presence of 2 ng ml^−1 human TGF-β, 10 μg ml^−1 each of anti-IFN-γ and anti-IL-4 mAbs, with or without CpG ODN, LPS or PGN.
Cathepsin K inactivation results in defective Th17 polarization in response to CpG, but not LPS or PGN were measured. CD4^+T cells and DCs were sorted from the spleen, and cocultured in the presence of CpG, LPS, or PGN for 3 days. After the culture, percentages of CD3e^+CD4^+IL-17^+ cells were analyzed by flowcytometry.

TLR9 [4] = test: CpG-stimulated cytokine production by BM-DCs (ELISA); type: cell-based, mouse; conditions: CpG (TLR9 ligand), 24 hours
Description: (§3) Immature DCs were generated from mouse BM, as described in K. Inaba et al., J. Exp. Med. 176,1693 (1992). In brief, BM cells were cultured with 10 ng ml^−1 murine GM-CSF or 10 ng ml^−1 murine Flt3L in RPMI 1640 medium supplemented with 10% FBS for 6 days. Loosely adherent cells were harvested by gentle pipetting and were used as BM-derived DCs. To obtain BM-derived macrophages, BM cells were cultured with 10 ng ml^−1 M-CSF in α-MEM medium supplemented with 10% FBS for 2 days, and adherent cells were used as BM-derived macrophages. For the pathogen-associated molecular pattern (PAMP) stimulation, cells were plated at 5×10^5 cells ml^−1 in 24-well plates, and cultured with 10 ng ml^−1 Lipopolysaccharide (LPS), 30 μg ml^−1 Peptidoglycan Type I (PGN), or Endotoxin-free phosphorothioate-stabilized CpG oligodeoxynucleotides (CpG ODN).
as §1
BM-DCs were stimulated with peptidoglycan (PGN), lipopolysaccharide (LPS), and unmethylated CpG oligodeoxynucleotides (CpG) for 24 hours and the culture super-natants were subjected to ELISA. *P<0.05, ***P<0.001 (versus control).

TLR3 = test: Cytokine mRNA expression in poly(I:C)-treated DCs derived from mouse spleen; type: cell-based; conditions: poly(I:C) (TLR3 ligand)-treated mouse spleen DCs, total RNA 3 hours after stimulation
Description: (§4) Quantitative RT-PCR was performed as described in K. Sato et al., Nat Med 12, 1410 (2006). The following primers were used.
(§5) Spleens were excised from male mice of 8 to 10 weeks. Dendritic cells (DCs) were separated from the spleens using pan DC microbeads (Miltenyi Biotec, Bergisch Gladbach, Germany), according to the manufacturer's instructions.
(§6) Total RNA was extracted 3 hours after stimulation.

CD40, CD80 and CD86 = test: TLR9-mediated expression of cell surface molecules in DCs (flowcytometry); type: cell-based, mouse; conditions: stimulated 48 hours
Description: as §2
DCs were stimulated with CpG or LPS for 48 hours and analyzed by flowcytometry.

[5] = system: rat model of adjuvant arthritis; test: Rat adjuvant arthritis, oral NC-2300 compared with alendronate; type: in vivo; conditions: for bone erosion in the ankle (radiological analysis): administered daily day 0 to day 35, soft X-rays of ankle joints day 36
Description: Rats were injected with complete Freund's adjuvant on day 0.
Bone mineral density of the proximal tibia assessed by pQCT (day 36).
Assessment for hind paws of adjuvant arthritis rats treated with NC-2300 or vehicle.
Adjuvant arthritis in hind paw administered with NC-2300 or vehicle was evaluated.

TLR9 [6] = test: Cytokine mRNA expression in CpG-treated BM-DCs (quantitative RT-PCR); type: cell-based, mouse
Description: as §4
The level of mRNA expression was normalized with that of β-actin expression.
BM-DCs were generated by either GM-CSF or Flt3L. Total RNA was extracted 6 hours after CpG stimulation.

BM-derived macrophages = test: Activation of BM-derived macrophages stimulated by PAMPs; type: cell-based, mouse
Description: as §3, §1

TLR7, 8 = test: Cytokine mRNA expression in R837-treated DCs derived from mouse spleen; type: cell-based; conditions: R837 (TLR7, 8 ligand)-treated mouse spleen DCs, total RNA 3 hours after stimulation
Description: as §4, §5, §6

BM-DCs = test: In vitro development of BM-DCs; type: cell-based, mouse
Description: as §3

cathepsin K−/− DCs = test: Cytokine production in WT or cathepsin K−/− DCs in response to LPS or CpG, with chloroquine; type: cell-based, mouse; conditions: chloroquine added 1 hour before the stimulation; cytokines IL-12 and IL-6
Description: as §1
Cytokine production in WT or cathepsin K^−/− DCs in response to LPS or CpG was measured. Chloroquine was added 1 hour before the stimulation to suppress endosomal acidification. N.D., not detected. *P<0.05, ***P<0.001 (versus WT).

[7] = arthritic rats, high dose treatment, day 35
[8] = BM-DCs, total RNA 6 hours after CpG stimulation

Question: Which results are given for `CC(C)COC[C@H](CC(C)C)NC(=O)[C@H]1O[C@@H]1C(=O)[O-].[Na+]` [NC-2300, monosodium (2S,3S)-3-[[(1S)-1-isobutoxymethyl-3-methylbutyl]carbamoyl]oxirane-2-carboxylate]?
Answer: IL-2 production of T cells [1]: no effect; proliferation of T cells [2]: no effect; cathepsin K activity in DCs (cathepsin K): inhibited by NC-2300 in a dose-dependent manner; phosphorylation of ERK 1/2 in DCs [3]: Suppression; ability of DCs to induce Th17 cells (Th17 cells; DCs stimulated with CpG): markedly inhibited; ability of DCs to induce Th17 cells (Th17 cells; DCs stimulated with LPS): only when DCs were stimulated with CpG; ability of DCs to induce Th17 cells (Th17 cells; DCs stimulated with PGN): only when DCs were stimulated with CpG; production of IL-12 by DCs (TLR9 [4]): significantly inhibited; production of IL-23 by DCs (TLR9 [4]): significantly inhibited; cytokine mRNA expression (IFN-1) (TLR3): suppressed; expression of CD40 in DCs (CD40, CD80 and CD86): reduced expression; expression of CD80 in DCs (CD40, CD80 and CD86): reduced expression; expression of CD86 in DCs (CD40, CD80 and CD86): reduced expression; locomotion activity: arthritis-induced incapacitation of rearing behavior [5, 7]: significantly ameliorated the arthritis-induced incapacitation of rearing behavior; locomotion activity: severity of the hind limb lameness [5, 7]: reduced the severity of the hind limb lameness; onset rate of arthritis ([5]; rat adjuvant arthritis): without affecting the onset rate of arthritis; paw swelling in the course of arthritis ([5]; rat adjuvant arthritis, hind paws): ameliorated paw swelling; inflammation when administered after the onset of disease ([5]; rat adjuvant arthritis, administered after the onset of disease): ameliorated inflammation; bone erosion in the ankle (radiological analysis) ([5]; rat adjuvant arthritis): markedly suppressed bone erosion; periarticular osteoporosis in the proximal tibia (bone mineral density) ([5]; rat adjuvant arthritis, pQCT day 36): comparable inhibitory effect; CpG-induced expression of IL-6 at the mRNA level (TLR9 [6]; [8]): downregulated; CpG-induced expression of IL-12 at the mRNA level (TLR9 [6]; [8]): downregulated; CpG-induced expression of IL-23 at the mRNA level (TLR9 [6]; [8]): downregulated; IFN production by Flt3L-induced DCs in response to CpG (TLR9 [6]; Flt3L-induced DCs, CpG): suppressed; activation of BM-derived macrophages (BM-derived macrophages): no significant effects; cytokine mRNA expression (IFN-1) (TLR7, 8): suppressed; in vitro development of BM-DCs (BM-DCs): no effects

Question: How did the “bone erosion in the ankle (radiological analysis)” value ([5]; rat adjuvant arthritis) turn out when `NCCCC(O)(P(=O)(O)O)P(=O)(O)O` [alendronate, reference compound] was run?
Answer: did not efficiently suppress bone erosion

Question: `CCOC(=O)[C@H]1O[C@@H]1C(=O)N[C@@H](CC(C)C)C(=O)NCCC(C)C` [E64d, reference compound] was tested. Which “cytokine mRNA expression (IFN-1)” value (TLR3) did it give?
Answer: suppressed

Question: And the “cytokine mRNA expression (IFN-1)” value (TLR7, 8)?
Answer: suppressed

Question: With `CCN(CC)CCCC(C)Nc1ccnc2cc(Cl)ccc12` (stereo not shown) [chloroquine] as the molecule, how does the “cytokine induction in cathepsin K−/− DCs” value (cathepsin K−/− DCs) read?
Answer: further suppressed
